In patent US20220213030A1, “AMINOGUANIDINE HYDRAZONES AS RETROMER STABILIZERS USEFUL FOR TREATING NEUROLOGICAL DISEASES” (OSPEDALE SAN RAFFAELE SRL, priority 2019, published 2022):

Key:
[1] = Brain uptake of compound 2a in C57BL6J mice (LC-MS/MS); format: in vivo; settings: 10 mg/Kg/day intraperitoneal; 1, 7, 15 and 30 days; saline perfused
Description: We run a pharmacokinetic assay on C57BL6J mice that received daily intraperitoneal injections of compound 2a (10 mg/Kg/day). Mice were sacrificed after 1, 7, 15 and 30 days saline perfused to avoid the CNS contamination of compounds contained in blood circulation and brains used for the determination of compound 2a levels by mass spectrometry.
Healthy mice were daily injected with vehicle or compound 2a (10 mg/kg) and sacrificed after 1, 7, 15 and 30 days. Upon saline perfusion, brains were dissociated from skulls, carefully weighted and rapidly stored in dry ice. Then, brains (˜400 mg) were checked for the presence of Compound 2a. […] After the extraction, each biological sample was re-suspended in 60 μl of LC/MS grade water and 5 μl analyzed by LC-MS/MS using the UPLC 1290 (Agilent Technologies) coupled to the TripleTOF 5600+ mass spectrometer (SCIEX) in positive mode. A Waters ACQUITY UPLC BEH HILIC column (2.1×10 mm, 1.7 μm) was used for the chromatographic separation through a gradient of solvent A (ACN+0.1% FA) and solvent B (H2O+0.1% FA). Calibration curves were constructed by plotting the peak area versus the corresponding concentrations using MultiQuant 2.1 software (SCIEX).

G93A mice [2] = assay: Motor neuron counts in ventral horn of lumbar spinal cord of G93A mice; format: in vivo, mouse; settings: 10 mg/kg daily, day 100
Description: Mice were sacrificed at day 100, and lumbar SCs assayed for studying MNs cell morphology and numbers. We initially scored NeuN^+ neurons in the ventral horn of the SC to monitor bona fide motor neurons.
Sections from mice (frozen cryo sections) or glass covers containing cells were washed three times in PBS 1× (Lonza, 5 min each), and incubated in the following blocking mix: PBS 1×/FBS 10% (Invitrogen), BSA 1 mg/mL (Sigma), TritonX100 0.1% (Sigma), for 1 h at room temperature. Antibodies were diluted in blocking mix and incubated at +4° C. overnight according manufacturer's instructions. The following day, sections were rinsed in PBS and fluorescent secondary antibodies—i.e. never deriving from the species from which the primary antibodies are derived—(Alexafluor conjugated) diluted in blocking mix, were used according to the manufacturer's instructions. Slides were incubated in Hoechst 33342 (Sigma) for nuclei counterstaining. When necessary, we performed antigens retrieval by boiling samples in 10 mM sodium citrate (pH 6) for 5 min. […]
Mice were maintained under pathogen-free conditions at San Raffaele Hospital mouse facility (Milan, Italy). […] Animal cohort numbers were determined by power analysis based on preliminary results.

G93A mice [3] = assay: Histopathology of sciatic nerves of G93A mice; format: in vivo, mouse; settings: 10 mg/kg daily, day 100
Text: We next performed histopathological analysis of sciatic nerves from WT control and G93A mice receiving compound 2a or vehicle. […] Using Luxol Fast Blue (LFB) staining, which binds lipoproteins of the myelin sheath, we analyzed myelination in sagittal sections of these nerves. […] Therefore, we observed a reduction of fibers degeneration and demyelination in sciatic nerves of G93A mice treated with compound 2a.
Comparative studies on sciatic nerves were done on tissues removed upon saline perfusion and rapidly fixed with 2% glutaraldehyde in 0.12 mol/L phosphate buffer, post fixed with 1% osmium tetroxide, and embedded in Epon (Fluka). Semi-thin sections (1 μm thick) were stained with toluidine blue and examined by light microscopy (Olympus BX51). Digitized not overlapping semi-thin section images from corresponding levels of the sciatic nerve were obtained with a digital camera (Leica DFC300F) using a 40X objective. Quantifications were done on at least 5 acquired images from each mouse. The numbers of degenerating nerve fibers were quantified using ImageJ software (National Institutes of Health, Bethesda, Md.).

Golgi apparatus (GM130) = assay: GM130 Golgi labelling in MNs of G93A mice; format: in vivo, mouse; settings: 10 mg/kg, day 100
Text: Ubiquitinated inclusions accumulate in MNs of sALS and fALS patients and in lumbar SCs of ALS mice (Kabashi 2001). High levels of ubiquitinated proteins may represent an overwhelmed response of MNs to protein misfolding and aggregation, as well as a reduction of lysosome functionality. We characterized poly-ubiquitinated proteins in lumbar SCs protein extracts by 10% denaturating PAGE. We included in our experiments protein extracts from Neuro2a cells treated with the proteasome inhibitor Bortezomib (BTZ), able to increase poly-ubiquitination, as an experimental control (FIG. 13A). […] We next scored ubiquitin MFI levels in ventral horn MNs of G93A mice. […] As previously observed in Neuro2a cells, the overexpression of G93A plasmids affects the Golgi apparatus, therefore we asked whether similar alterations can occur in G93A mice by labeling lumbar sections for the cis-Golgi matrix protein GM130.
Sections from mice (frozen cryo sections) or glass covers containing cells were washed three times in PBS 1× (Lonza, 5 min each), and incubated in the following blocking mix: PBS 1×/FBS 10% (Invitrogen), BSA 1 mg/mL (Sigma), TritonX100 0.1% (Sigma), for 1 h at room temperature. Antibodies were diluted in blocking mix and incubated at +4° C. overnight according manufacturer's instructions. […]

N=C(N)NN=Cc1cccc(C=NNC(=N)N)c1 [Compound 2a, 1,3-Bis-amino guanidine phenyl hydrazone]
compound levels in the brain (ability to access the CNS) [1]: significant amounts of compound 2a in the brain
numbers of NeuN+ motor neurons in the ventral horn (G93A mice [2]): significantly higher numbers of motor neurons than vehicle-treated G93A mice
degenerating peripheral nerve fibers in sciatic nerves (G93A mice [3]): significant protection of peripheral nerve fibers
demyelination (Luxol Fast Blue staining) (G93A mice [3]): substantial attenuation of the demyelination process
myelin integrity (MBP and NF-M labelling) (G93A mice [3]): preserved the integrity of myelin
reduction of GM130-covered areas in MNs (Golgi apparatus (GM130)): substantially reverted
